The assay concerns 2058-dimethylated ribosomes isolated from the S. aureus N315 strain. Description: RNA footprinting of A2058-dimethylated (Erm-modified) ribosomes from S. aureus N315. It is filed as binding. The conditions noted are these: S. aureus N315 ribosomes dimethylated at A2058, drugs at 100 μM. How it is done:
Ribosome chemical probing. rRNA probing was done following standard protocols (Merryman, C., and H. F. Noller. 1998. Footprinting and modification-interference analysis of binding sites on RNA, p. 237-253. In C. W. J. Smith (ed.), RNA:Protein Interactions, A Practical Approach. Oxford University Press, Oxford), with minor modifications. Briefly, 200 nM ribosomes were incubated with 100 μM antibiotic in 50 μL of buffer B (80 mM HEPES-KOH [pH 7.8], 20 mM MgCl2, 100 mM NH4Cl, 1.5 mM dithiothreitol) for 10 min at 37° C., followed by 10 min at 20° C. Modifying reagents (dimethyl sulfate [DMS], kethoxal, or 1-cyclohexyl-3-(2-morpholinoethyl)carbodiimide metho p-toluene sulfonate [CMCT]) were added and the modification reaction was carried out for 10 min at 37° C. After quenching the reaction and ethanol precipitation, rRNA was extracted and the distribution of modified nucleotides was assessed by primer extension.
Interaction of CEM-101 with S. aureus ribosomes dimethylated at A2058 by Erm-methyltransferase. Erm-methyltransferase modifies A2058 in 23S rRNA by consecutively adding two methyl groups to the exocyclic amino group of the adenine base. Such modification completely blocks binding of erythromycin and similar macrolides, whereas its effect on binding of ketolides is less clear (Douthwaite, S., L. H. Hansen, and P. Mauvais. 2000. Macrolide-ketolide inhibition of MLS-resistant ribosomes is improved by alternative drug interaction with domain R of 23S rRNA. Mol. Microbiol. 36:183-193; Liu, M., and S. Douthwaite. 2002. Activity of the ketolide telithromycin is refractory to Erm monomethylation of bacterial rRNA. Antimicrob. Agents Chemother. 46:1629-1633). Therefore, interaction of CEM-101 with the ribosomes isolated from a clinical S. aureus strain N315, which carries five chromosomal copies of constitutively expressed ermA gene present in the Tn554 transposon (Kuroda, M., T. Ohta, I. Uchiyama, T. Baba, H. Yuzawa, I. Kobayashi, L. Cui, A. Oguchi, K. Aoki, Y. Nagai, J. Lian, T. Ito, M. Kanamori, H. Matsumaru, A. Maruyama, H. Murakami, A. Hosoyama, Y. Mizutani-Ui, N. K. Takahashi, T. Sawano, R. Inoue, C. Kaito, K. Sekimizu, H. Hirakawa, S. Kuhara, S. Goto, J. Yabuzaki, M. Kanehisa, A. Yamashita, K. Oshima, K. Furuya, C. Yoshino, T. Shiba, M. Hattori, N. Ogasawara, H. Hayashi, and K. Hiramatsu. 2001. Whole genome sequencing of meticillin-resistant Staphylococcus aureacs. Lancet 357:1225-1240) was investigated.
Footprinting analysis was used to test interactions of ketolides (CEM-101 and telithromycin) and cladinose-containing macrolides (CEM-103 and erythromycin) with the 2058-dimethylated ribosomes isolated from the S. aureus N315 strain. Ribosomes were incubated with the drugs (present at 100 μM concentration) and probed by DMS modification. Because dimethylated A2058 blocks progression of reverse transcriptase along the RNA template, a strong reverse transcriptase stop is observed at A2058 on the primer extension gel (Vester, B., and S. Douthwaite. 1994. Domain V of 23S rRNA contains all the structural elements necessary for recognition by the ErmE methyltransferase. J. Bacteriol. 176:6999-7004; Zhong, P., Z. Cao, R. Hammond, Y. Chen, J. Beyer, V. D. Shortridge, L. Y. Phan, S. Pratt, J. Capobianco, K. A. Reich, R. K. Flamm, Y. S. Or, and L. Katz. 1999. Induction of ribosome methylation in MLS-resistant Streptococcus pneumoniae by macrolides and ketolides. Microb. Drug Resist. 5:183-188). Therefore, it is impossible to use footprinting to evaluate interactions of macrolides with this position in the S. aureus N315 ribosomes. […]

Molecules are shown by their SMILES.

With `CC[C@H]1OC(=O)[C@@](C)(F)C(=O)[C@H](C)[C@@H](O[C@@H]2O[C@H](C)C[C@H](N(C)C)[C@H]2O)[C@](C)(OC)C[C@@H](C)C(=O)[C@H](C)[C@H]2N(CCCCn3cc(-c4cccc(N)c4)nn3)C(=O)O[C@]12C` [CEM-101], the “Protection of A2059 from DMS modification (binding to Erm-modified ribosome)” value was “protection of A2059 from DMS modification”, the “Protection of G2505 from kethoxal modification” value is listed as “partially protected” and the “Protection of U2609 from modification with CMCT” value is on record as “fully protected”.

For the origin of these results see US9815863B2, “Hydrogen bond forming fluoro ketolides for treating diseases” (priority 2010, dated 2017).
